Km and Kd data for two compounds are collected here from PMC6207642, “Real Time Monitoring of NADPH Concentrations in Corynebacterium glutamicum and Escherichia coli via the Genetically Encoded Sensor mBFP” (Frontiers in Microbiology, 2018).

Assay [1] concerns T1, mBFP.
T1 construct: no tag mentioned; codon-optimized gene (amplicon 780 bp) used only in cells
As to the kind of experiment: photometric benzaldehyde reductase assay, Michaelis-Menten fit. The class given is biochemical, uncultured bacterium. Particulars: phosphate buffer pH 8, 30 °C.

For assay [2], the target named is T1, mBFP. As to the kind of experiment: thermal shift (SYPRO Orange), concentration dependence. It is filed as binding, uncultured bacterium. Particulars: NADPH 0-10 mM; 40 to 70 °C in 0.5 °C steps.

With `NC(=O)C1=CN([C@@H]2O[C@H](COP(=O)(O)OP(=O)(O)OC[C@H]3O[C@@H](n4cnc5c(N)ncnc54)[C@H](OP(=O)(O)O)[C@@H]3O)[C@@H](O)[C@H]2O)C=CC1` [NADPH], in the assay on mBFP [1] (12.5 mM benzaldehyde, NADPH 0.5-180 μM), the Km stood at 41 µM. Besides, the Kd at mBFP [2] came to 640 µM.

Consider `O=Cc1ccccc1` [benzaldehyde], for which the Km in the assay with mBFP [1] (200 μM NADPH, benzaldehyde 0.5-12.5 mM) worked out at 3100 µM.
